Values joined by “and” are separate entries in the source; they are usually repeats but may differ in a detail not shown here. Equal values may be shown once. Toxic doses and inconclusive results are not listed.
Tested on: L1210 leukemia ip in BDF1 mice, survival T/C
Assay: NCI In Vivo Anticancer Drug Screen. Data for tumor model L1210 Leukemia (intraperitoneal) in B6D2F1 (BDF1) mice
Settings: endpoint: mean survival time, higher = longer survival
Procedure, shortened: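 Tumor cells were implanted, animals were treated, and survival was followed. The result divides the treated measurement by the vehicle-control measurement.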

[1] = dose: 100.0 mg/kg/injection, schedule: Q04DX003 (ip), vehicle: saline with Tween-80
[2] = dose: 200.0 mg/kg/injection, schedule: Q04DX003 (ip), vehicle: saline with Tween-80
[3] = dose: 400.0 mg/kg/injection, schedule: Q04DX003 (ip), vehicle: saline with Tween-80
[4] = dose: 100.0 mg/kg/injection, schedule: Q01DX009 (ip), vehicle: Klucel (hydroxypropylcellulose) (HPC)
[5] = dose: 200.0 mg/kg/injection, schedule: Q01DX009 (ip), vehicle: Klucel (hydroxypropylcellulose) (HPC)
[6] = dose: 400.0 mg/kg/injection, schedule: Q01DX009 (ip), vehicle: Klucel (hydroxypropylcellulose) (HPC)
[7] = dose: 100.0 mg/kg/injection, schedule: Q01DX001 (ip), vehicle: carboxymethylcellulose (CMC)
[8] = dose: 200.0 mg/kg/injection, schedule: Q01DX001 (ip), vehicle: carboxymethylcellulose (CMC)
[9] = dose: 400.0 mg/kg/injection, schedule: Q01DX001 (ip), vehicle: carboxymethylcellulose (CMC)
[10] = dose: 400.0 mg/kg/injection, schedule: Q04DX003 (ip), vehicle: saline
[11] = dose: 200.0 mg/kg/injection, schedule: Q01DX009 (ip), vehicle: saline
[12] = dose: 100.0 mg/kg/injection, schedule: Q01DX009 (ip), vehicle: saline
[13] = dose: 100.0 mg/kg/injection, schedule: Q04DX003 (ip), vehicle: Klucel (hydroxypropylcellulose) (HPC)
[14] = dose: 200.0 mg/kg/injection, schedule: Q04DX003 (ip), vehicle: Klucel (hydroxypropylcellulose) (HPC)
[15] = dose: 400.0 mg/kg/injection, schedule: Q04DX003 (ip), vehicle: Klucel (hydroxypropylcellulose) (HPC)
[16] = dose: 100.0 mg/kg/injection, schedule: Q04DX003 (ip), vehicle: saline
[17] = dose: 200.0 mg/kg/injection, schedule: Q04DX003 (ip), vehicle: saline
[18] = dose: 100.0 mg/kg/injection, schedule: Q04DX002 (ip), vehicle: Klucel (hydroxypropylcellulose) (HPC)
[19] = dose: 200.0 mg/kg/injection, schedule: Q04DX002 (ip), vehicle: Klucel (hydroxypropylcellulose) (HPC)
[20] = dose: 400.0 mg/kg/injection, schedule: Q04DX002 (ip), vehicle: Klucel (hydroxypropylcellulose) (HPC)

With CC1=C(c2ccccc2)C(c2ccccc2)=C(C)C1=NNc1ccc([N+](=O)[O-])cc1[N+](=O)[O-] the T/C (dose: 100.0 mg/kg/injection, schedule: Q01DX001 (ip), vehicle: saline with Tween-80) was 86 % of control, the T/C (dose: 200.0 mg/kg/injection, schedule: Q01DX001 (ip), vehicle: saline with Tween-80) was 86 % of control and the T/C (dose: 400.0 mg/kg/injection, schedule: Q01DX001 (ip), vehicle: saline with Tween-80) was 86 % of control.
In the case of Cc1ccccc1C(=O)NCC(=O)O, the T/C (dose: 100.0 mg/kg/injection, schedule: Q01DX009 (ip), vehicle: saline with Tween-80) was 91 % of control, the T/C [1] was 95 % of control and the T/C (dose: 200.0 mg/kg/injection, schedule: Q01DX009 (ip), vehicle: saline with Tween-80) was 91 % of control. The T/C [2] was 94 % of control, the T/C (dose: 400.0 mg/kg/injection, schedule: Q01DX009 (ip), vehicle: saline with Tween-80) was 86 % of control and the T/C [3] was 98 % of control.
CCC(C(=O)NC(C)c1ccc(-c2ccccc2)cc1)c1ccccc1 (configuration not stated) was tested, and the T/C [4] was 87 % of control, the T/C [5] was 92 % of control and the T/C [6] was 86 % of control.
COC(=O)C1C(=O)CCC2CN3CCc4c([nH]c5ccccc45)C3CC21 (configuration not stated) was tested, and the T/C (dose: 12.5 mg/kg/injection, schedule: Q04DX002 (ip), vehicle: saline with Tween-80) was 94 % of control, the T/C (dose: 25.0 mg/kg/injection, schedule: Q04DX002 (ip), vehicle: saline with Tween-80) was 100 % of control and the T/C (dose: 50.0 mg/kg/injection, schedule: Q04DX002 (ip), vehicle: saline with Tween-80) was 90 % of control.
For Cc1ccc(CNC(=O)C2CCCCC2C(=O)O)cc1 (configuration not stated), the T/C [4] was 100 % of control, the T/C [5] was 96 % of control and the T/C [6] was 93 % of control.
With CN1Cc2c(ccc3c2OCO3)[C@@H]2[C@H](O)Cc3cc4c(cc3[C@@H]21)OCO4 the T/C (dose: 50.0 mg/kg/injection, schedule: Q01DX Z (ip), vehicle: carboxymethylcellulose (CMC)) was 102 % of control, the T/C (dose: 75.0 mg/kg/injection, schedule: Q01DX Z (ip), vehicle: carboxymethylcellulose (CMC)) was 108 % of control and the T/C [7] was 102 % of control. For the same compound, the T/C (dose: 100.0 mg/kg/injection, schedule: Q01DX Z (ip), vehicle: carboxymethylcellulose (CMC)) was 102 % of control, the T/C [1] was 101 % of control and the T/C (dose: 180.0 mg/kg/injection, schedule: Q04DX003 (ip), vehicle: Klucel (hydroxypropylcellulose) (HPC)) was 111 % of control. The T/C [8] was 113 % of control, the T/C [2] was 101 % of control and the T/C (dose: 266.0 mg/kg/injection, schedule: Q04DX003 (ip), vehicle: Klucel (hydroxypropylcellulose) (HPC)) was 98 % of control. For the same compound, the T/C (dose: 266.0 mg/kg/injection, schedule: Q04DX003 (ip), vehicle: saline) was 105 % of control, the T/C (dose: 300.0 mg/kg/injection, schedule: Q01DX Z (ip), vehicle: carboxymethylcellulose (CMC)) was 98 % of control and the T/C [9] was 102 % of control. The T/C [3] was 165 % of control, the T/C [10] was 111 % of control and the T/C (dose: 600.0 mg/kg/injection, schedule: Q04DX003 (ip), vehicle: Klucel (hydroxypropylcellulose) (HPC)) was 157 % of control.
For CCCCCNC(C)=O, the T/C [11] was 108 % of control.
With Cc1c(C(=O)O)nnn1/C=C/c1ccccc1 the T/C (dose: 100.0 mg/kg/injection, schedule: Q04DX003 (ip), vehicle: acetone) was 103 % of control and the T/C (dose: 200.0 mg/kg/injection, schedule: Q04DX003 (ip), vehicle: acetone) was 87 % of control.
C/C(=N\NC(N)=S)C(C)(C)O was tested, and the T/C [7] was 110 % of control, the T/C [8] was 108 % of control and the T/C [9] was 104 % of control.
O=c1nc(NCCc2cnc[nH]2)nc(NCCc2cnc[nH]2)[nH]1 was tested, and the T/C (dose: 50.0 mg/kg/injection, schedule: Q01DX009 (ip), vehicle: Klucel (hydroxypropylcellulose) (HPC)) was 100 % of control, the T/C [4] was 100 % of control and the T/C [5] was 92 % of control.
For CCOC(=O)/C=C1/Nc2cc(C)c(C)cc2NC1=O, the T/C [1] was 91 % of control, the T/C [2] was 89 % of control and the T/C [3] was 94 % of control.
In the case of OC1(O)COC(c2ccccc2)OC1, the T/C [12] was 96 % of control, the T/C [13] was 105 % of control and the T/C [11] was 102 % of control. For the same compound, the T/C [14] was 101 % of control, the T/C (dose: 400.0 mg/kg/injection, schedule: Q01DX009 (ip), vehicle: saline) was 93 % of control and the T/C [15] was 99 % of control.
For O=C(Nc1ccc(NC(=O)Nc2ccc(C3=NCCN3)cc2)cc1)Nc1ccc(C2=NCCN2)cc1, the T/C (dose: 110.0 mg/kg/injection, schedule: Q01DX Z (ip), vehicle: carboxymethylcellulose (CMC)) was 100 % of control and 115 % of control, the T/C (dose: 240.0 mg/kg/injection, schedule: Q01DX Z (oral), vehicle: carboxymethylcellulose (CMC)) was 98 % of control and the T/C (dose: 303.0 mg/kg/injection, schedule: Q01DX Z (ip), vehicle: carboxymethylcellulose (CMC)) was 160 % of control. For the same compound, the T/C (dose: 375.0 mg/kg/injection, schedule: Q01DX Z (ip), vehicle: carboxymethylcellulose (CMC)) was 98 % of control, the T/C (dose: 455.0 mg/kg/injection, schedule: Q01DX Z (ip), vehicle: carboxymethylcellulose (CMC)) was 93 % of control and the T/C (dose: 480.0 mg/kg/injection, schedule: Q01DX Z (oral), vehicle: carboxymethylcellulose (CMC)) was 104 % of control. The T/C (dose: 960.0 mg/kg/injection, schedule: Q01DX Z (oral), vehicle: carboxymethylcellulose (CMC)) was 107 % of control.
With O=C(C=C(C(F)(F)F)C(F)(F)F)c1ccccc1 the T/C (dose: 100.0 mg/kg/injection, schedule: Q01DX001 (ip), vehicle: saline) was 100 % of control, the T/C [12] was 91 % of control and the T/C (dose: 200.0 mg/kg/injection, schedule: Q01DX001 (ip), vehicle: saline) was 94 % of control. The T/C [11] was 100 % of control and the T/C (dose: 400.0 mg/kg/injection, schedule: Q01DX001 (ip), vehicle: saline) was 109 % of control.
With Nc1n[nH]c2ccccc12 the T/C (dose: 50.0 mg/kg/injection, schedule: Q04DX002 (ip), vehicle: gum acacia) was 104 % of control, the T/C (dose: 100.0 mg/kg/injection, schedule: Q04DX002 (ip), vehicle: gum acacia) was 107 % of control and the T/C (dose: 200.0 mg/kg/injection, schedule: Q04DX002 (ip), vehicle: gum acacia) was 100 % of control.
For NNc1ccc2cccc(O)c2n1, the T/C [7] was 90 % of control and the T/C [8] was 93 % of control.
In the case of O=c1cc(COc2ccc(O)cc2)[nH]c(=O)[nH]1, the T/C [16] was 101 % of control, the T/C [17] was 104 % of control and the T/C [10] was 89 % of control.
O=C(Nc1ccc(Cl)c(Cl)c1)Oc1ccc2ccccc2c1 was tested, and the T/C [4] was 90 % of control, the T/C [13] was 104 % of control and the T/C [5] was 101 % of control. For the same compound, the T/C [14] was 90 % of control, the T/C [6] was 95 % of control and the T/C [15] was 90 % of control.
For CN(Cc1ccccc1)C(=O)NC(C)(C)C, the T/C [18] was 121 % of control, the T/C [19] was 102 % of control and the T/C [20] was 105 % of control.
For C1CC(=NN=C2CCSCC2)CCS1, the T/C [16] was 96 % of control, the T/C [17] was 94 % of control and the T/C [10] was 123 % of control.
For COc1ccc(/C=C/c2ccc3ccccc3n2)cc1, the T/C [18] was 111 % of control, the T/C [19] was 97 % of control and the T/C [20] was 105 % of control.
S=C(Cc1ccc2ccccc2c1)N1CCN(c2ccccc2)CC1 was tested, and the T/C (dose: 100.0 mg/kg/injection, schedule: Q01DX001 (ip), vehicle: olive oil, sesame oil, peanut oil) was 92 % of control, the T/C (dose: 100.0 mg/kg/injection, schedule: Q04DX003 (sc), vehicle: olive oil, sesame oil, peanut oil) was 100 % of control and the T/C (dose: 200.0 mg/kg/injection, schedule: Q01DX001 (ip), vehicle: olive oil, sesame oil, peanut oil) was 97 % of control. The T/C (dose: 200.0 mg/kg/injection, schedule: Q04DX003 (sc), vehicle: olive oil, sesame oil, peanut oil) was 111 % of control, the T/C (dose: 400.0 mg/kg/injection, schedule: Q01DX001 (ip), vehicle: olive oil, sesame oil, peanut oil) was 97 % of control and the T/C (dose: 400.0 mg/kg/injection, schedule: Q04DX003 (sc), vehicle: olive oil, sesame oil, peanut oil) was 107 % of control.

Reference: PubChem BioAssay AID248 (DTP/NCI, 2004)
